Measured values reported in ChEMBL document CHEMBL1151698, “Inhibition of aldose reductase from cataracted eye lenses by finger millet (Eleusine coracana) polyphenols” (Bioorg Med Chem, 2008).
≈ marks a conversion by molar mass, not a printed value.

Columns and labels:
[1] = system: Radical scavenging activity; experiment: Antioxidant activity assessed as DPPH radical scavenging activity after 20 mins; assay type: functional
[2] = target: Aldo-keto reductase family 1 member B1 (Homo sapiens, UniProt P15121); experiment: Inhibition of cataracted human eye lens aldose reductase

| IC50 [1] [µg/mL] | IC50 [2] [µM] | Structure (SMILES) |
| --- | --- | --- |
| 112.01 (≈ 682 µM) | 989 | O=C(O)/C=C/c1ccc(O)cc1 [COUMARIC ACID] |
| 96.7 (≈ 653 µM) | 460 | O=C(O)/C=C/c1ccccc1 [CINNAMIC ACID] |
| 189.1 (≈ 974 µM) | – | COc1cc(/C=C/C(=O)O)ccc1O [FERULATE] |

Further lines, the molecule ahead of its results:

| Structure (SMILES) | IC50 [1] [µg/mL] | IC50 [2] [µM] |
| --- | --- | --- |
| COc1cc(C(=O)O)ccc1O [VANILLIC ACID] | 176.5 (≈ 1050 µM) | – |
| O=C(O)c1cc(O)c(O)c(O)c1 [GALLIC ACID] | 26.9 (≈ 158 µM) | 572 |
| O=C(O)c1ccc(O)cc1 [PARABEN] | 183.7 (≈ 1330 µM) | – |
| O=c1c(O)c(-c2ccc(O)c(O)c2)oc2cc(O)cc(O)c12 [QUERCETIN] | 56.8 (≈ 188 µM) | – |
| COc1cc(C(=O)O)cc(OC)c1O [SYRINGIC ACID] | 155.6 (≈ 785 µM) | 868 |
| O=C(O)c1ccc(O)c(O)c1 [PROTOCATECHUIC ACID] | 77.63 (≈ 504 µM) | 277 |
